Measurements taken from ChEMBL document CHEMBL4177608, “Design and synthesis of benzimidazole-based Rho kinase inhibitors for the treatment of glaucoma” (Bioorg Med Chem, 2017).
≈ marks a conversion by molar mass, not a printed value.

Experiments:
Rattus norvegicus [1] = species on record: Rattus norvegicus; experiment: Reduction in intraocular pressure in Wistar rat model of dexamethasone-induced elevated IOP assessed as change in intraocular pressure in contralateral eye at 1 % w/v after 6 hrs by tonometry (reference value: 0%); format: ADME, organism-based; parameters: scale not given: the % may be the effect or the level left; details: in vivo
Rattus norvegicus [2] = species on record: Rattus norvegicus; experiment: Reduction in intraocular pressure in Wistar rat model of dexamethasone-induced elevated IOP assessed as change in intraocular pressure in contralateral eye at 1 % w/v after 4 hrs by tonometry (reference value: 0%); format: ADME, organism-based; parameters: scale not given: the % may be the effect or the level left; details: in vivo
Rattus norvegicus [3] = species on record: Rattus norvegicus; experiment: Reduction in intraocular pressure in Wistar rat model of dexamethasone-induced elevated IOP assessed as change in intraocular pressure in contralateral eye at 1 % w/v after 1 hr by tonometry (reference value: 0%); format: ADME, organism-based; parameters: scale not given: the % may be the effect or the level left; details: in vivo, topical_or_ocular
Rattus norvegicus [4] = species on record: Rattus norvegicus; experiment: Reduction in intraocular pressure in Wistar rat model of dexamethasone-induced elevated IOP assessed as change in intraocular pressure at 1 % w/v after 2.5 hrs by tonometry (reference value: 0%); format: functional; parameters: scale not given: the % may be the effect or the level left
Rattus norvegicus [5] = species on record: Rattus norvegicus; experiment: Reduction in intraocular pressure in Wistar rat model of dexamethasone-induced elevated IOP assessed as change in intraocular pressure at 1 % w/v after 6 hrs by tonometry (reference value: 0%); format: functional; parameters: scale not given: the % may be the effect or the level left
Rattus norvegicus [6] = species on record: Rattus norvegicus; experiment: Reduction in intraocular pressure in Wistar rat model of dexamethasone-induced elevated IOP assessed as change in intraocular pressure at 1 % w/v after 1 hr by tonometry (reference value: 0%); format: functional; parameters: scale not given: the % may be the effect or the level left
Rattus norvegicus [7] = species on record: Rattus norvegicus; experiment: Reduction in intraocular pressure in Wistar rat model of dexamethasone-induced elevated IOP assessed as change in intraocular pressure in contralateral eye at 1 % w/v after 2.5 hrs by tonometry (reference value: 0%); format: ADME, organism-based; parameters: scale not given: the % may be the effect or the level left; details: in vivo
Rattus norvegicus [8] = species on record: Rattus norvegicus; experiment: Reduction in intraocular pressure in Wistar rat model of dexamethasone-induced elevated IOP assessed as peak effect time for reduction in intraocular pressure at 1 % w/v by tonometry; format: functional, organism-based
Rattus norvegicus [9] = species on record: Rattus norvegicus; experiment: Reduction in intraocular pressure in Wistar rat model of dexamethasone-induced elevated IOP assessed as onset time for reduction in intraocular pressure at 1 % w/v by tonometry; format: functional
Rattus norvegicus [10] = species on record: Rattus norvegicus; experiment: Reduction in intraocular pressure in Wistar rat model of dexamethasone-induced elevated IOP assessed as change in intraocular pressure in contralateral eye at 1 % w/v after 3 hrs by tonometry (reference value: 0%); format: ADME, organism-based; parameters: scale not given: the % may be the effect or the level left; details: in vivo
Rattus norvegicus [11] = species on record: Rattus norvegicus; experiment: Reduction in intraocular pressure in Wistar rat model of dexamethasone-induced elevated IOP assessed as change in intraocular pressure in contralateral eye at 1 % w/v after 2 hrs by tonometry (reference value: 0%); format: ADME, organism-based; parameters: scale not given: the % may be the effect or the level left; details: in vivo
Rattus norvegicus [12] = species on record: Rattus norvegicus; experiment: Reduction in intraocular pressure in Wistar rat model of dexamethasone-induced elevated IOP assessed as change in intraocular pressure at 1 % w/v after 3 hrs by tonometry (reference value: 0%); format: functional; parameters: scale not given: the % may be the effect or the level left
Rattus norvegicus [13] = species on record: Rattus norvegicus; experiment: Reduction in intraocular pressure in Wistar rat model of dexamethasone-induced elevated IOP assessed as reduction in intraocular pressure at peak effect time at 1 % w/v by tonometry; format: functional; parameters: scale not given: the % may be the effect or the level left
Rattus norvegicus [14] = species on record: Rattus norvegicus; experiment: Reduction in intraocular pressure in Wistar rat model of dexamethasone-induced elevated IOP assessed as change in intraocular pressure in contralateral eye at 1 % w/v after 5 hrs by tonometry (reference value: 0%); format: ADME, organism-based; parameters: scale not given: the % may be the effect or the level left; details: in vivo
[15] = Antioxidant activity assessed as DPPH free radical scavenging activity after 30 mins by spectrophotometric analysis; format: functional
Rattus norvegicus [16] = species on record: Rattus norvegicus; experiment: Reduction in intraocular pressure in Wistar rat model of dexamethasone-induced elevated IOP assessed as change in intraocular pressure at 1 % w/v after 4 hrs by tonometry (reference value: 0%); format: functional; parameters: scale not given: the % may be the effect or the level left
[17] = Antioxidant activity assessed as DPPH free radical scavenging activity at 150 ug/ml after 30 mins by spectrophotometric analysis; format: functional
Rattus norvegicus [18] = species on record: Rattus norvegicus; experiment: Reduction in intraocular pressure in Wistar rat model of dexamethasone-induced elevated IOP assessed as change in intraocular pressure at 1 % w/v after 2 hrs by tonometry (reference value: 0%); format: functional; parameters: scale not given: the % may be the effect or the level left
[19] = Antioxidant activity assessed as DPPH free radical scavenging activity at 200 ug/ml after 30 mins by spectrophotometric analysis; format: functional
Rattus norvegicus [20] = species on record: Rattus norvegicus; experiment: Reduction in intraocular pressure in Wistar rat model of dexamethasone-induced elevated IOP assessed as change in intraocular pressure at 1 % w/v after 0.5 hrs by tonometry (reference value: 0%); format: functional; parameters: scale not given: the % may be the effect or the level left
Rattus norvegicus [21] = species on record: Rattus norvegicus; experiment: Reduction in intraocular pressure in Wistar rat model of dexamethasone-induced elevated IOP assessed as change in intraocular pressure in contralateral eye at 1 % w/v after 1.5 hrs by tonometry (reference value: 0%); format: ADME, organism-based; parameters: scale not given: the % may be the effect or the level left; details: in vivo
[22] = Antioxidant activity assessed as DPPH free radical scavenging activity at 50 ug/ml after 30 mins by spectrophotometric analysis; format: functional
[23] = 1-Octanol/water partition coefficient, log P of compound at 2 mg after 24 hrs by spectrophotometry based shake flask method; format: physicochemical
Rattus norvegicus [24] = species on record: Rattus norvegicus; experiment: Reduction in intraocular pressure in Wistar rat model of dexamethasone-induced elevated IOP assessed as change in intraocular pressure at 1 % w/v after 1.5 hrs by tonometry (reference value: 0%); format: functional; parameters: scale not given: the % may be the effect or the level left
Rattus norvegicus [25] = species on record: Rattus norvegicus; experiment: Reduction in intraocular pressure in Wistar rat model of dexamethasone-induced elevated IOP assessed as change in intraocular pressure in contralateral eye at 1 % w/v after 0.5 hrs by tonometry (reference value: 0%); format: ADME, organism-based; parameters: scale not given: the % may be the effect or the level left; details: in vivo, topical_or_ocular
Rattus norvegicus [26] = species on record: Rattus norvegicus; experiment: Reduction in intraocular pressure in Wistar rat model of dexamethasone-induced elevated IOP assessed as change in intraocular pressure at 1 % w/v after 5 hrs by tonometry (reference value: 0%); format: functional; parameters: scale not given: the % may be the effect or the level left
[27] = Antioxidant activity assessed as DPPH free radical scavenging activity at 25 ug/ml after 30 mins by spectrophotometric analysis; format: functional
[28] = Antioxidant activity assessed as DPPH free radical scavenging activity at 5 ug/ml after 30 mins by spectrophotometric analysis; format: functional
[29] = Antioxidant activity assessed as DPPH free radical scavenging activity at 100 ug/ml after 30 mins by spectrophotometric analysis; format: functional

| Activity (Rattus norvegicus [1]) [%] | Activity (Rattus norvegicus [2]) [%] | Activity (Rattus norvegicus [3]) [%] | Activity (Rattus norvegicus [7]) [%] | Activity (Rattus norvegicus [10]) [%] | Activity (Rattus norvegicus [11]) [%] | Activity (Rattus norvegicus [14]) [%] | IC50 [15] [µg/mL] | Structure (SMILES) | Activity (Rattus norvegicus [4]) [%] | Activity (Rattus norvegicus [5]) [%] | Activity (Rattus norvegicus [6]) [%] | Tmax (Rattus norvegicus [8]) [h] | Time (Rattus norvegicus [9]) [h] | Activity (Rattus norvegicus [12]) [%] | Activity (Rattus norvegicus [13]) [%] | Activity (Rattus norvegicus [16]) [%] | Activity [17] [%] | Activity (Rattus norvegicus [18]) [%] | Activity [19] [%] | Activity (Rattus norvegicus [20]) [%] | further results |
| --- | --- | --- | --- | --- | --- | --- | --- | --- | --- | --- | --- | --- | --- | --- | --- | --- | --- | --- | --- | --- | --- |
| 0 | 0 | 2.02 | 1.27 | 0.87 | 4.07 | 0 | 121.33 (≈ 343 µM) | O=C(CN1CCN(c2ccccc2F)CC1)Nc1nc2ccccc2[nH]1 | 13.5 | 0.17 | 6.5 | 2.5 | 0.5 | 11.7 | 46.61 | 7.52 | 56.6 | 12.47 | 70.6 | 2.82 | Activity (Rattus norvegicus [21]): 3.2%; Activity [22]: 37.4%; logP at 24 h [23]: 0.94; Activity (Rattus norvegicus [24]): 9.77%; Activity (Rattus norvegicus [25]): 0.9%; Activity (Rattus norvegicus [26]): 0.95%; Activity [27]: 18.8%; Activity [28]: 11.6%; Activity [29]: 47.7% |
| 0 | 0 | 2.37 | 4.8 | 2.62 | 5.22 | 0 | 124.91 (≈ 435 µM) | CCN1CCN(CC(=O)Nc2nc3ccccc3[nH]2)CC1 | 12.25 | 0.45 | 6.23 | 2.5 | 0.5 | 8.93 | 45.02 | 5.65 | 57.5 | 10.6 | 65.8 | 4.12 | Activity (Rattus norvegicus [21]): 3.73%; Activity [22]: 35.7%; logP at 24 h [23]: 1.09; Activity (Rattus norvegicus [24]): 9.55%; Activity (Rattus norvegicus [25]): 1.4%; Activity (Rattus norvegicus [26]): 0.53%; Activity [27]: 26.6%; Activity [28]: 13.3%; Activity [29]: 45.7% |
| 0 | 0.8 | 1.6 | 4.15 | 2.3 | 3.1 | 0 | 116.48 (≈ 330 µM) | O=C(CN1CCN(C(=O)c2ccco2)CC1)Nc1nc2ccccc2[nH]1 | 14.92 | 1.27 | 4.6 | 2 | 0.5 | 8.63 | 48.33 | 6.6 | 59 | 11.1 | 71 | 3.9 | Activity (Rattus norvegicus [21]): 2.03%; Activity [22]: 35.9%; logP at 24 h [23]: 2.02; Activity (Rattus norvegicus [24]): 8.8%; Activity (Rattus norvegicus [25]): 0.4%; Activity (Rattus norvegicus [26]): 4.47%; Activity [27]: 23.4%; Activity [28]: 14.5%; Activity [29]: 49% |
| 0.47 | 1.26 | 2.47 | 2.72 | 2.32 | 3.2 | 0.83 | 134.71 (≈ 386 µM) | O=C(CN1CCN(Cc2ccccc2)CC1)Nc1nc2ccccc2[nH]1 | 11.45 | 0.9 | 5.58 | 2.5 | 0.5 | 10.5 | 35.52 | 5.66 | 52.6 | 8.65 | 63.9 | 3.4 | Activity (Rattus norvegicus [21]): 3.13%; Activity [22]: 33.3%; logP at 24 h [23]: 1.97; Activity (Rattus norvegicus [24]): 6.85%; Activity (Rattus norvegicus [25]): 1.67%; Activity (Rattus norvegicus [26]): 2.9%; Activity [27]: 22.1%; Activity [28]: 6.28%; Activity [29]: 47% |
